Source: US9725490B2, “ERAP1-derived peptide and use thereof” (TOKUSHIMA UNIVERSITY, priority 2011, dated 2017)

Tests used:
[1] = tested on: generation of ROS in MCF-7 cells; assay: ROS production in the mitochondria, DHR123 flow cytometry; format: cell-based, human
Method: FIG. 41-2 is a diagram illustrating that ROS production in the mitochondria by E2 stimulation is induced through ERAP1. […] MCF-7 cells, and MCF-7 cells suppressed for expression of ERAP1, and HCC1395 cells were treated with 10 μM DHR123 for 15 minutes. The cells were washed, and then stimulated with 10 μM ERAP1-peptide and 10 nM E2 for 24 hours, and analyzed by flow cytometry. Cells treated with 1 mM H2O2 for 24 hours were used as a positive control. The data are representative examples of two independent experiments.

HCC1395 cells = assay: Proliferation of ERα-positive/ERAP1-negative HCC1395 cells; format: cell-based, human; details: 10 nM E2 96 hours
Method: FIG. 21 is a diagram illustrating that […] was translocated into the nucleus by E2 stimulation in ERAP1-negative breast cancer cell lines, HCC1395 cells. […] Then, immediately, the cells were stimulated with 1 μM E2 for 24 hours. The cells were fractionated into cytoplasm and nuclear fractions by specific gravity centrifugation. Then, each fraction was subjected to immunoblotting analysis using an anti-PHB2 antibody. Lamin and Tubulin are markers for […]. […] HCC1395 cells were treated with 5 μM ERAP1-peptide. Then, immediately, the cells were stimulated with 1 μM E2 for 24 hours. Then, the nuclear fraction was immunoprecipitated with anti-ERα antibody. Furthermore, with respect to the obtained sample, the immunoprecipitate was subjected to immunoblotting analysis with the antibodies shown in the figure. […] Then, immediately the cells were stimulated with 10 nM E2 for 96 hours.
The proliferation assay of HCC1395 cells was evaluated using Cell-Counting Kit-8 (CCK-8, Dojindo, Kumamoto, Japan). First, HCC1395 cells were seeded in 2×10^4/well in RPMI culture medium containing 10% FBS and 1% antibiotic/antimycotic solution and not containing phenol red on a 48-well plate, and stood in a CO2 incubator. […] Then, 100 μl from each well was moved to a 96-well plate, and the absorbance at 450 nm was measured with a microplate reader.

ERAP1 expression = assay: ERAP1 expression, quantitative RT-PCR and Western, MCF-7; format: cell-based, human; details: 10 μM peptide, time course
[2] = Stability of ERAP1-peptide in MCF-7 cells, immunoblotting; format: in vitro ADME, human
Method: FIG. 37 is a diagram illustrating the results of evaluations for the stability of the ERAP1-peptide and the influence of the ERAP1-peptide on cellular E2. […] MCF-7 cells were treated with 10 μM HA-tagged ERAP1-peptide. Then, immediately, the cells were temporally stimulated with 10 nM E2. The data are standardized with β-actin, and show the ratio when the value at 1 hour (n=1, 3) or at 3 hours (n=2) is designated as 100. […] MCF-7 cells were treated with 10 μM ERAP1-peptide. Then, immediately, the cells were temporally stimulated with 10 nM E2. The cell lysate was centrifuged, and then the supernatant and a precipitate lysed with methanol were mixed (final concentration of methanol: 10%), and the cellular E2 concentration was measured with a commercially available kit (17β-estradiol ELISA kit, Wako Pure Chemical Industries, Ltd.).

[3] = tested on: transcriptional activity of ERE-ERα; assay: ERE-luciferase reporter assay in KPL-3C cells; format: cell-based, human; details: 10 nM E2 24 hours
Method: (§1) KPL-3C cells temporarily transfected with an ERE-luciferase reporter vector were treated with the ERAP1-peptide in the concentrations shown in the figure. Then, immediately, the cells were stimulated with 10 nM E2 for 24 hours. TAM indicates the tamoxifen treatment. […] KPL-3C cells were treated for 24 hours with the ERAP1-peptide and/or E2. Then, the nuclear fraction was immunoprecipitated with anti-ERα antibody or an anti-PHB2 antibody.

MCF-10A cells = assay: Cell proliferation assay, normal epithelial MCF-10A; format: cell-based, human; details: 24 hours
Method: FIG. 6-1 is a diagram illustrating that ERAP1-peptide treatment suppresses ERα-dependent cell proliferation of breast cancer cell lines. (A) and (B) show the results of MTT assay by which the inhibition effect of the ERAP1-peptide in the E2-dependent cell proliferation was evaluated. MCF-7 cells were treated with the ERAP1-peptide (A, B) the ERAP1-scramble peptide (B) or the ERAP1-mutant peptide (B).
Using Cell-Counting Kit-8 (CCK-8, Dojindo, Kumamoto, Japan), the cell proliferation assay was performed. The cells were harvested, and plated in 2×10^4 cells/well on a 48-well plate, and maintained at 37° C. in a humidified incubator. At the indicated time points, the cells were added with a CCK-8 solution diluted to 1:10, and incubated for 1 hour. Then, the absorbance at 450 nm was measured and the number of living cells in each well was calculated.

[4] = tested on: ERα complex with PHB2/REA, NcoR, HDAC1, SRC-1; assay: Chromatin remodeling complex, immunoprecipitation of nuclear fraction; format: cell-based, human
Method: as §1
FIG. 4-4 is a diagram illustrating that the ERAP1-peptide promotes nuclear translocation of PHB2. […] MCF-7 cells were treated with the ERAP1-peptide and/or 10 nM E2 for 24 hours. Then, the nuclear fraction was immunoprecipitated with anti-ERα antibody or an anti-PHB2 antibody. […] MCF-7 cells were treated with the ERAP1-peptide and/or E2 for 24 hours. Then, the cell lysate was immunoprecipitated with anti-PHB2 antibody. Subsequently, the HDAC activity in the immunoprecipitate was measured with a commercially available kit. The nuclear extract from the HeLa cells and PBS were used as a positive control (P) and as negative control (N), respectively.
As described in the item of “Western blotting analysis”, the cells were lysed with a 0.1% NP-40 lysis buffer. The cell lysate was precleaned using normal IgG and rec-Protein G Sepharose 4B (Zymed, San Francisco, Calif., USA) at 4° C. for 3 hours. […]

[5] = tested on: pS2, cyclin D1, c-Myc, SP-1, E2F1, PgR; assay: Quantitative RT-PCR of ERα target genes, MCF-7; format: cell-based, human

CSCC[C@H](NC(=O)[C@H](CCC(N)=O)NC(=O)[C@H](CCCNC(=N)N)NC(=O)[C@H](CCCNC(=N)N)NC(=O)[C@H](CCCNC(=N)N)NC(=O)[C@H](CCCNC(=N)N)NC(=O)[C@H](CCCNC(=N)N)NC(=O)[C@H](CCCNC(=N)N)NC(=O)[C@H](CCCNC(=N)N)NC(=O)[C@H](CCCNC(=N)N)NC(=O)[C@H](CCCNC(=N)N)NC(=O)[C@H](CCCNC(=N)N)NC(=O)[C@@H](N)CCCNC(=N)N)C(=O)N[C@@H](CC(C)C)C(=O)N[C@@H](CO)C(=O)N[C@@H](CC(=O)O)C(=O)N[C@@H](CC(C)C)C(=O)N[C@H](C(=O)N[C@@H](CC(C)C)C(=O)N[C@@H](CCC(N)=O)C(=O)N[C@@H](CC(C)C)C(=O)N[C@@H](CCCNC(=N)N)C(=O)N[C@@H](CCC(N)=O)C(=O)N[C@@H](CCCNC(=N)N)C(=O)O)[C@@H](C)O [ERAP1-peptide]
generation of ROS ([1]; MCF-7 in which expression of ERAP1 was suppressed): had no influence on the generation of ROS
generation of ROS ([1]; MCF-7 transfected with control siRNA, 10 μM, E2 24 hours): generation of ROS was remarkably suppressed
cell proliferation (HCC1395 cells): not recognized
E2-dependent expression of ERAP1 (ERAP1 expression): temporally suppressed
residual percentage of the ERAP1-peptide ([2]; 24 hours after the administration, on average): 84%
residual percentage of the ERAP1-peptide ([2]; after 30 hours): 56%
residual percentage of the ERAP1-peptide ([2]; after 36 hours): 58%
residual percentage of the ERAP1-peptide ([2]; after 48 hours): 54%
half-life ([2]; human, in MCF-7 cells): ~30 h
transcriptional activity of ERE-ERα [3]: suppression for the transcriptional activity of ERE-ERα was recognized
cell proliferation (MCF-10A cells): had no influence on the cell proliferation at all
interaction of ERα with transcription factors ([4]; KPL-3C cells): ERα recruited NcoR and HDAC1 to form a complex
interaction of ERα with transcription factors ([4]; MCF-7 cells): the binding of ERα and SRC-1 decreased, whereas ERα interacted with PHB2/REA, and further recruited NcoR and HDAC1 to form a complex
expression of ERα target genes ([5]; after 24 hours): expression of any of the genes was remarkably suppressed
time at which significant expression suppression effect was first recognized ([5]; after addition of the peptide): 6 h
